Measurements published in patent publication US20210038628A1, “NANOPARTICLE COMPOSITIONS” (JANUARY THERAPEUTICS, INC., priority 2018, published 2021).
Where a name gives a salt, the structure may show the parent alone.

Tested on: BxPC-3 (pancreatic adenocarcinoma) cell line
Assay: Cellular proliferation assay in BxPC-3 cells (Cell-Titer Glo)
Assay type: cell-based
Settings: Homo sapiens, 120 hours incubation, Cell-Titer Glo luminescence
Method: Compounds are tested for their ability to impair cancer cell proliferation and/or induce cell death. For cellular proliferation studies, cultured cells are treated with the test compound for 24-120 hours. After compound treatment, cell proliferation is assessed by using methods including, but not limited to, Cell-Titer-Glo® (Promega), Alamar Blue, LIVE/DEAD® (ThermoFisher), BrdU incorporation, and live-cell imaging. The cancer lines used include, but are not limited to BxPC-3 (pancreatic cancer). Gemcitabine Hydrochloride serves as a control for activity.
BxPC-3 (pancreatic adenocarcinoma) cell line was purchased from the American Type Culture Collection (Catalog #CRL-1687) and grown in RPMI-1640 medium (e.g. Corning #10-040-CV) with 10% Heat Inactivated Fetal Calf Serum at 37° C. and 5% CO2 (as recommended by the ATCC).
Cultures were grown in […] plates to 80% confluence, and cells were trypsinized to a single-cell suspension. Cells were then resuspended in growth medium to a density of […]. They were then plated into 96-well assay plates (Corning #3917) in a volume of 100 ul/well (2,500 cells/well). Cells were allowed to adhere to plates for 24 h at 37° C. and 5% CO2). Compounds were then added to the wells using an […] serial dilution scheme (over 9 dilutions, generally ranging from 30 μM-30 pM), and the cells were incubated for an additional 120 hours. After 120 h, 90 ul of Cell-Titer Glo reagent (Promega #G7572) was added, and the plates were read using a luminescence counter (e.g., BioTek Synergy HTX at 100 ms read time).

EC50	SMILES
1 to 10 nM	CCCCCCCCCCCCC(=O)O[C@@H]1[C@@H](COP(=O)(OCOC(=O)CC(C)(C)C)OCOC(=O)CC(C)(C)C)O[C@@H](n2ccc(N)nc2=O)C1(F)F [Compound 17]
< 1 nM	CCCCCCCCCCCCCCC(=O)OC1[C@@H](COP(=O)(OCOC(=O)CC(C)(C)C)OCOC(=O)CC(C)(C)C)O[C@@H](n2ccc(N)nc2=O)C1(F)F (stereo partly shown) [Compound 27]
1 to 10 nM	Nc1ccn([C@@H]2O[C@H](CO)[C@@H](O)C2(F)F)c(=O)n1 [Gemcitabine Hydrochloride, reference compound]

SMILES	EC50
CCCCCCCCCCCCCCCCCCC(=O)O[C@@H]1[C@@H](COP2(=O)OCc3ccccc3O2)O[C@@H](n2ccc(N)nc2=O)C1(F)F (stereo partly drawn) [Compound 16, (2R,3R,5R)-5-(4-amino-2-oxopyrimidin-1(2H)-yl)-4,4-difluoro-2-(((2-oxido-4H-benzo[d][1,3,2]dioxaphosphinin-2-yl)oxy)methyl)tetrahydrofuran-3-yl Nonadecanoate]	< 1 nM
